Where a name gives a salt, the structure may show the parent alone.
Target: human factor Xa (FXa) (Homo sapiens, UniProt P00742)
Assay: Determination of the factor Xa inhibition (chromogenic substrate)
Type: biochemical
Conditions: human FXa 0.5 nmol/l, 150 μmol/l Pefachrome FXa, 25° C., extinction at 405 nm
Method: a. 1) Determination of the Factor Xa Inhibition:
The enzymatic action of human factor Xa (FXa) is measured using the conversion of a chromogenic substrate specific for FXa. Factor Xa cleaves p-nitroaniline from the chromogenic substrate. The determinations are carried out in microtiter plates as follows:
The test substances, in various concentrations, are dissolved in DMSO and incubated for 10 minutes at 25° C. with human FXa (0.5 nmol/l dissolved in 50 mmol/l of tris buffer [C,C,C-tris(hydroxymethyl)aminomethane], 150 mmol/l of NaCl, 0.1% BSA [bovine serum albumin], pH=8.3). Pure DMSO is used as control. The chromogenic substrate (150 μmol/l Pefachrome® FXa from Pentapharm) is then added. After an incubation time of 20 minutes at 25° C., the extinction at 405 nm is determined.

Sequence of human factor Xa (FXa) (P00742 235-488 limits assumed): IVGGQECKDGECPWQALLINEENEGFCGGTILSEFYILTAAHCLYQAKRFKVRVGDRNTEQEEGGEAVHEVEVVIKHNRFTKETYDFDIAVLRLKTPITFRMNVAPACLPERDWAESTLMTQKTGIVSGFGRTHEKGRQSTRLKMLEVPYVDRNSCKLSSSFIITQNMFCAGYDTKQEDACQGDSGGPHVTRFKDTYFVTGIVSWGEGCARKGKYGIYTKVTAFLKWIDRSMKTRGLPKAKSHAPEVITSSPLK
Sequence of human factor Xa (FXa) (P00742 41-179 partner limits assumed): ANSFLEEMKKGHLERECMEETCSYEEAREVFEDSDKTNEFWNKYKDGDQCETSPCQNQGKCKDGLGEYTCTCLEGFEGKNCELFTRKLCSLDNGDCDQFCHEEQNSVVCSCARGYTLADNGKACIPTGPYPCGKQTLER

Compared with `O=C(O)COCCNc1ccc(N2C[C@H](CNC(=O)c3ccc(Cl)s3)OC2=O)cc1` [Example 1, 2-({4-[(5S)-5-({[(5-Chloro-2-thienyl)carbonyl]amino}methyl)-2-oxo-1,3-oxazolidin-3-yl]phenyl}-amino)ethoxy]acetic acid hydrochloride], `CC(C)CNC(=O)N(CCOCC(=O)O)c1ccc(N2C[C@H](CNC(=O)c3ccc(Cl)s3)OC2=O)cc1` [Example 4, {2-[{4-[(5S)-5-({[(5-Chloro-2-thienyl)carbonyl]amino}methyl)-2-oxo-1,3-oxazolidin-3-yl]phenyl}-(isobutylcarbamoyl)amino]ethoxy}acetic acid] is 1.8-fold higher in IC50: 32 nM for the first, 59 nM for the second. The first is the more potent here.

Molecule `O=C(O)COCCN(C(=O)c1ccc(Cl)s1)c1ccc(N2C[C@H](CNC(=O)c3ccc(Cl)s3)OC2=O)cc1` [Example 3, [2-([(5-Chloro-2-thienyl)carbonyl]{4-[(5S)-5-({[(5-chloro-2-thienyl)carbonyl]amino}methyl)-2-oxo-1,3-oxazolidin-3-yl]phenyl}amino)ethoxy]acetic acid] has an IC50 of 66 nM.

Source: US7932278B2, “2-aminoethoxyacetic acid derivatives and their use” (Bayer Schering Pharma Aktiengesellschaft, priority 2005, dated 2011)
